Measurements: US20220289708A1, “SUBSTITUTED N-PHENYL URACILS, SALTS THEREOF AND THEIR USE AS HERBICIDAL AGENTS” (Bayer Aktiengesellschaft, priority 2019, published 2022)

How the values were obtained:
Assay type in all cases: in vivo
Abutilon theophrasti = assay: Post-emergence herbicidal action; conditions: application rate 20 g/ha, rated visually after about 3 weeks vs untreated controls
How it was run: (§1)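 Percent activity, judged by eye about 3 weeks after treatment relative to untreated plants, ranges from 0% (as control) to 100% (plants dead). Foliar application at 20 g/ha and less was made at the one-leaf stage using a 600 l/ha aqueous spray containing 0.5% additive.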

Alopecurus myosuroides = assay: Post-emergence herbicidal action; conditions: application rate 20 g/ha, rated visually after about 3 weeks vs untreated controls
How it was run: as §1

Amaranthus retroflexus = assay: Post-emergence herbicidal action; conditions: application rate 20 g/ha, rated visually after about 3 weeks vs untreated controls
How it was run: as §1

Avena fatua = assay: Post-emergence herbicidal action; conditions: application rate 20 g/ha, rated visually after about 3 weeks vs untreated controls
How it was run: as §1

Digitaria sanguinalis = assay: Post-emergence herbicidal action; conditions: application rate 20 g/ha, rated visually after about 3 weeks vs untreated controls
How it was run: as §1

Echinochloa crus-galli = assay: Post-emergence herbicidal action; conditions: application rate 20 g/ha, rated visually after about 3 weeks vs untreated controls
How it was run: as §1

Lolium rigidum = assay: Post-emergence herbicidal action; conditions: application rate 20 g/ha, rated visually after about 3 weeks vs untreated controls
How it was run: as §1

Matricaria inodora = assay: Post-emergence herbicidal action; conditions: application rate 20 g/ha, rated visually after about 3 weeks vs untreated controls
How it was run: as §1

Pharbitis purpurea = assay: Post-emergence herbicidal action; conditions: application rate 20 g/ha, rated visually after about 3 weeks vs untreated controls
How it was run: as §1

Polygonum convolvulus = assay: Post-emergence herbicidal action; conditions: application rate 20 g/ha
How it was run: as §1

Setaria viridis = assay: Post-emergence herbicidal action; conditions: application rate 20 g/ha, rated visually after about 3 weeks vs untreated controls
How it was run: as §1

Veronica persica = assay: Post-emergence herbicidal action; conditions: application rate 20 g/ha
How it was run: as §1

Viola tricolor = assay: Post-emergence herbicidal action; conditions: application rate 20 g/ha
How it was run: as §1

Oryza sativa = assay: Post-emergence crop plant compatibility
How it was run: (§2)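 Greenhouse crop plants in sandy loam sprayed at one-leaf stage (2-3 weeks after sowing) with WP or EC formulations plus 0.5% additive, 600 l/ha water, at 5 g/ha or 20 g/ha. Damage scored visually after about 3 weeks as % versus untreated controls (100% = plants dead).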

Zea mays = assay: Post-emergence crop plant compatibility; conditions: application rate 5 g/ha
How it was run: as §2

| SMILES | Abutilon theophrasti (efficacy in %) (Abutilon theophrasti) | Alopecurus myosuroides (efficacy in %) (Alopecurus myosuroides) | Amaranthus retroflexus (efficacy in %) (Amaranthus retroflexus) | Avena fatua (efficacy in %) (Avena fatua) | Digitaria sanguinalis (efficacy in %) (Digitaria sanguinalis) | Echinochloa crus-galli (efficacy in %) (Echinochloa crus-galli) | Lolium rigidum (efficacy in %) (Lolium rigidum) | Matricaria inodora (efficacy in %) (Matricaria inodora) | Pharbitis purpurea (efficacy in %) (Pharbitis purpurea) | Polygonum convolvulus (efficacy in %) (Polygonum convolvulus) | Setaria viridis (efficacy in %) (Setaria viridis) | Veronica persica (efficacy in %) (Veronica persica) | Viola tricolor (efficacy in %) (Viola tricolor) | Oryza sativa (efficacy in %) (Oryza sativa; application rate 5 g/ha) | Zea mays (efficacy in %) (Zea mays) | Oryza sativa (efficacy in %) (Oryza sativa; application rate 20 g/ha) |
| --- | --- | --- | --- | --- | --- | --- | --- | --- | --- | --- | --- | --- | --- | --- | --- | --- |
| COCCOC(=O)COc1ncccc1Oc1cc(-n2c(=O)cc(C(F)(F)F)n(C)c2=O)c(F)cc1[N+](=O)[O-] [I.14-1] | 100% | 90% | 100% | 80% | 100% | 100% | 80% | 100% | 100% | 100% | 100% | 100% | 100% | 0% | 10% |  |
| CCOCCOC(=O)COc1ncccc1Oc1cc(-n2c(=O)cc(C(F)(F)F)n(C)c2=O)c(F)cc1[N+](=O)[O-] [I.14-2] | 100% | 100% | 100% | 100% | 100% | 100% | 90% | 100% | 100% |  | 100% | 100% | 100% |  | 20% | 10% |
